These results are taken from the supplement of paper PMC10307832.

Experiment in all cases: relative viability (nuclei count vs DMSO), 5 days (fraction); higher = more cells survive
Compound in the assay “Decitabine + Pictilisib”: Nc1ncn([C@H]2C[C@H](O)[C@@H](CO)O2)c(=O)n1 [Decitabine] + CS(=O)(=O)N1CCN(Cc2cc3nc(-c4cccc5[nH]ncc45)nc(N4CCOCC4)c3s2)CC1 [Pictilisib] (partner 1 µM)
The gist of the method: (§1)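 Medians of duplicate plates are given as relative viability. That measure is the nuclei count in treated wells divided by the count in vehicle wells. Counts were taken on 4× images of lung cancer cell lines in 1536-well plates, 5 days after pin-tool dosing the day after seeding with one drug alone or a fixed anchor-drug dose plus five library-drug doses (not always all listed) in √10 steps.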

Compound in the assay “Decitabine + Pemetrexed”: Nc1ncn([C@H]2C[C@H](O)[C@@H](CO)O2)c(=O)n1 [Decitabine] + Nc1nc2[nH]cc(CCc3ccc(C(=O)N[C@@H](CCC(=O)O)C(=O)O)cc3)c2c(=O)[nH]1 [Pemetrexed] (partner 0.2 µM)
The gist of the method:
as §1

Compound in the assay “Cediranib + Vorinostat”: COc1cc2c(Oc3ccc4[nH]c(C)cc4c3F)ncnc2cc1OCCCN1CCCC1 [Cediranib] + O=C(CCCCCCC(=O)Nc1ccccc1)NO [Vorinostat] (partner 1 µM)
The gist of the method:
as §1

Compound in the assay “Cediranib + Alpelisib”: COc1cc2c(Oc3ccc4[nH]c(C)cc4c3F)ncnc2cc1OCCCN1CCCC1 [Cediranib] + Cc1nc(NC(=O)N2CCC[C@H]2C(N)=O)sc1-c1ccnc(C(C)(C)C(F)(F)F)c1 [Alpelisib] (partner 2 µM)
The essentials: as §1

As for UMC-11, the relative viability in the assay with Decitabine + Pictilisib (first compound 0.04 µM) is 0.737; in the assay with Decitabine + Pictilisib (first compound 0.1265 µM), 0.794; with Decitabine + Pictilisib (first compound 0.4 µM), 0.315; with Decitabine + Pictilisib (first compound 1.265 µM), 0.335; with Decitabine + Pictilisib (first compound 4 µM) it was 0.271; with Decitabine + Pemetrexed (first compound 0.04 µM) it was 0.691. The relative viability with Decitabine + Pemetrexed (first compound 0.1265 µM) came to 0.563; with Decitabine + Pemetrexed (first compound 0.4 µM), 0.406; with Decitabine + Pemetrexed (first compound 1.265 µM), 0.358; with Decitabine + Pemetrexed (first compound 4 µM), 0.351; with Cediranib + Vorinostat (first compound 0.04 µM) it was 0.396; in the assay with Cediranib + Vorinostat (first compound 0.1265 µM) it was 0.256. Also, the relative viability with Cediranib + Vorinostat (first compound 0.4 µM) is 0.345; in the assay with Cediranib + Vorinostat (first compound 1.265 µM) it was 0.392; with Cediranib + Vorinostat (first compound 4 µM) it was 0.412; in the assay with Cediranib + Alpelisib (first compound 0.04 µM), 1.06; in the assay with Cediranib + Alpelisib (first compound 0.1265 µM), 0.879; with Cediranib + Alpelisib (first compound 0.4 µM), 0.934. For the same cell line, the figures for the relative viability in the assay with Cediranib + Alpelisib (first compound 1.265 µM) and with Cediranib + Alpelisib (first compound 4 µM) were 0.984 and 0.922, respectively.
